Experiments:
[1] = test system: NK-YS (IL-2 2.5 ng/mL); experiment: drug sensitivity score (DSS) (DSS units); higher = more sensitive; extreme values may be limits of the assay; settings: 72 h
[2] = test system: normal primary NK cells, pool 2 (3 donors) (IL-2 2.5 ng/mL); experiment: as above; settings: 72 h
[3] = test system: NK-92 (IL-2 2.5 ng/mL); experiment: as above; settings: 72 h
[4] = test system: KAI3 (IL-2 2.5 ng/mL); experiment: as above; settings: 72 h
[5] = test system: YT (IL-2 2.5 ng/mL); experiment: as above; settings: 72 h
[6] = test system: normal primary NK cells, pool 1 (3 donors), resting (IL-2 0 ng/mL); experiment: as above; settings: 72 h
[7] = test system: NKL (IL-2 2.5 ng/mL); experiment: as above; settings: 72 h
[8] = test system: normal primary NK cells, pool 1 (3 donors) (IL-2 2.5 ng/mL); experiment: as above; settings: 72 h
[9] = test system: normal primary NK cells, pool 3 (3 donors) (IL-2 2.5 ng/mL); experiment: as above; settings: 72 h
[10] = test system: IMC-1 (IL-2 20 ng/mL); experiment: as above; settings: 72 h
[11] = test system: SNK-6 (IL-2 2.5 ng/mL); experiment: as above; settings: 72 h
[12] = test system: KHYG-1 (IL-2 2.5 ng/mL); experiment: as above; settings: 72 h
[13] = test system: DERL-7 (IL-2 2.5 ng/mL); experiment: as above; settings: 72 h
[14] = test system: normal NK cells expanded with K562-aAPC; experiment: as above; settings: 72 h; IL-2 2.5 ng/mL
Experimental: (§1)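 Drug sensitivity and resistance testing on K562-aAPC-expanded normal NK cells: 5 concentrations (10-fold steps over a 10,000-fold range), 72 h at 37 °C, viability by CellTiter-Glo normalised to DMSO and benzethonium chloride controls; DSS from the fitted curve.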

[15] = test system: NK-YS (IL-2 2.5 ng/mL); experiment: percent inhibition of viability; higher = more inhibition; settings: 72 h
[16] = test system: normal primary NK cells, pool 2 (3 donors) (IL-2 2.5 ng/mL); experiment: as above; settings: 72 h
[17] = test system: NK-92 (IL-2 2.5 ng/mL); experiment: as above; settings: 72 h
[18] = test system: KAI3 (IL-2 2.5 ng/mL); experiment: as above; settings: 72 h
[19] = test system: YT (IL-2 2.5 ng/mL); experiment: as above; settings: 72 h
[20] = test system: normal primary NK cells, pool 1 (3 donors), resting (IL-2 0 ng/mL); experiment: as above; settings: 72 h
[21] = test system: NKL (IL-2 2.5 ng/mL); experiment: as above; settings: 72 h
[22] = test system: normal primary NK cells, pool 1 (3 donors) (IL-2 2.5 ng/mL); experiment: as above; settings: 72 h
[23] = test system: normal primary NK cells, pool 3 (3 donors) (IL-2 2.5 ng/mL); experiment: as above; settings: 72 h
[24] = test system: IMC-1 (IL-2 20 ng/mL); experiment: as above; settings: 72 h
[25] = test system: SNK-6 (IL-2 2.5 ng/mL); experiment: as above; settings: 72 h
[26] = test system: KHYG-1 (IL-2 2.5 ng/mL); experiment: as above; settings: 72 h
[27] = test system: DERL-7 (IL-2 2.5 ng/mL); experiment: as above; settings: 72 h
[28] = test system: normal NK cells expanded with K562-aAPC; experiment: as above; settings: 72 h, IL-2 2.5 ng/mL
Experimental: as §1

COc1cc2c(Oc3ccc(NC(=O)C4(C(=O)Nc5ccc(F)cc5)CC4)cc3F)ccnc2cc1OCCCN1CCOCC1 [Foretinib] (max concentration tested 1000 nM)
Settings | drug sensitivity score
[1] | 5.79
[2] | 0
[3] | 4.04
[4] | 2.98
[5] | 3.73
[6] | 4.1
[7] | 5
[8] | 1.19
[9] | 0.32
[10] | 1.64
[11] | 2.27
[12] | 5.21
[13] | 3.35
[14] | 5.37

percent inhibition of viability [%]
Settings | 0.1 nM | 1 nM | 10 nM | 100 nM | 1000 nM
[15] | -1.72 | -7.82 | -1.95 | 11.5 | 70.2
[16] | -11.2 | -4.47 | 3.97 | -2.36 | -2.41
[17] | -17.3 | -12.3 | -5.79 | 19.9 | 34.9
[18] | 3.99 | -0.1 | 0.67 | 11.6 | 31.7
[19] | -1.93 | -8.62 | -2.43 | 13.9 | 37.3
[20] | -4.45 | 1.67 | 17.2 | 10.1 | 18.4
[21] | -12.1 | -16.5 | -5.45 | 16.3 | 49.9
[22] | 3.18 | -0.67 | 9.57 | 11.1 | 15.9
[23] | -8.78 | -7.33 | 8.91 | 6.17 | 10.7
[24] | -6.29 | -10.2 | -1.31 | 3.45 | 27.1
[25] | -1.08 | -15.3 | -7.01 | -4.86 | 49.9
[26] | 1.36 | -8.14 | -3.69 | 18.4 | 49.9
[27] | 3.24 | -0.68 | 2.22 | -8.07 | 70.8
[28] | -5.4 | -5.19 | -3.74 | 12.6 | 61

Nc1ccn([C@@H]2O[C@H](CO)[C@@H](O)C2(F)F)c(=O)n1 [Gemcitabine] (max concentration tested 1000 nM)
Settings | drug sensitivity score
[1] | 28.4
[2] | 3.97
[3] | 31
[4] | 27.6
[5] | 17.4
[6] | 0.38
[7] | 38.4
[8] | 0.96
[9] | 3.49
[10] | 30.6
[11] | 25.1
[12] | 32.6
[13] | 23.7
[14] | 24.5

percent inhibition of viability [%]
Settings | 0.1 nM | 1 nM | 10 nM | 100 nM | 1000 nM
[15] | -3.23 | -1.72 | 87.7 | 97.1 | 101
[16] | -12.2 | -6.97 | 19.6 | 14.7 | 29.7
[17] | -6.25 | 12.2 | 92.2 | 104 | 104
[18] | -18.3 | 3.34 | 79.8 | 98.3 | 101
[19] | 2.42 | -2.18 | 20.1 | 78.2 | 65
[20] | -12.2 | -40.4 | -21.2 | -27.6 | 23.4
[21] | -10.6 | 68.9 | 102 | 106 | 104
[22] | -2.78 | -14 | 4.7 | -1.17 | 26.4
[23] | -9.85 | -6.72 | 16.8 | 12.6 | 38
[24] | -7.53 | 2 | 99.1 | 101 | 101
[25] | 18.4 | 13.8 | 57.7 | 94.6 | 100
[26] | 2.22 | 12.5 | 101 | 105 | 105
[27] | -4.73 | -12.3 | 44.9 | 99.7 | 99.8
[28] | 1.65 | 34.8 | 55.6 | 74.6 | 88.2

CN1CCN(C2CCN(C(=O)Nc3cc(Oc4ccc(NC(=O)C5(C(=O)Nc6ccc(F)cc6)CC5)c(F)c4)ccn3)CC2)CC1 [Golvatinib] (max concentration tested 2500 nM)
Settings | drug sensitivity score
[1] | 0.08
[2] | 0
[3] | 4.41
[4] | 1.75
[5] | 1.11
[6] | 1.23
[7] | 1.26
[8] | 0.66
[9] | 0
[10] | 0
[11] | 0
[12] | 3.05
[13] | 0.2
[14] | 1.59

percent inhibition of viability [%]
Settings | 0.25 nM | 2.5 nM | 25 nM | 250 nM | 2500 nM
[15] | -10.5 | -6.07 | -5.82 | 0.77 | 12.1
[16] | -0.98 | 2.77 | 11.2 | -2.79 | 3.25
[17] | -11.7 | -1.86 | -7.52 | 14.7 | 44.5
[18] | -7 | -3.9 | 0.53 | 6.28 | 24
[19] | -6.16 | -1.34 | -3.26 | 2.58 | 22.1
[20] | -3.44 | 12.3 | 5.91 | 13.5 | 11.9
[21] | -12.1 | -3.62 | 2.15 | 8.61 | 20.8
[22] | -2.39 | 15 | 8.72 | 9.1 | 11.9
[23] | -5.97 | 4.22 | 1.77 | 0.21 | -2.7
[24] | -9.45 | -2.35 | -2.39 | 5.73 | 3.69
[25] | -15.4 | -12 | -10.5 | -8.86 | 2.23
[26] | -11.8 | -6.81 | -7.1 | 2.14 | 52.1
[27] | -1.96 | -0.71 | 1.22 | -0.87 | 15.2
[28] | -2.77 | -6.95 | -4.34 | 5.19 | 23.6

CC(C)C[C@H](NC(=O)[C@@H](COC(C)(C)C)NC(=O)[C@H](Cc1ccc(O)cc1)NC(=O)[C@H](CO)NC(=O)[C@H](Cc1c[nH]c2ccccc12)NC(=O)[C@H](Cc1cnc[nH]1)NC(=O)[C@@H]1CCC(=O)N1)C(=O)N[C@@H](CCCNC(=N)N)C(=O)N1CCC[C@H]1C(=O)NNC(N)=O [Goserelin] (max concentration tested 10000 nM)
Settings | drug sensitivity score
[1] | 0
[2] | 0.22
[3] | 0.34
[4] | 0.84
[5] | 0.49
[6] | 5.4
[7] | 0.26
[8] | 0
[9] | 0
[10] | 0.01
[11] | 0
[12] | 0
[13] | 0
[14] | 0.04

percent inhibition of viability [%]
Settings | 1 nM | 10 nM | 100 nM | 1000 nM | 10000 nM
[15] | -9.13 | -9.66 | -6.69 | -6.01 | 6.61
[16] | -6.03 | -6.27 | -2.35 | 5.13 | 11.8
[17] | -9.16 | -10.9 | -7.22 | -12.8 | 20.7
[18] | -6.09 | -9.54 | -7.05 | 1.42 | 21.1
[19] | -6.11 | -8.09 | -5.17 | -3.36 | 20.9
[20] | -2.06 | 1.54 | 20.9 | 19.8 | 15.1
[21] | -13.2 | -11.5 | -12.2 | 0.66 | 14.8
[22] | 2.55 | -1.49 | 10.9 | 10.5 | -0.05
[23] | -3.77 | -5.54 | 7.78 | 0.8 | -2.53
[24] | -8.43 | -3.76 | -4.51 | -0.15 | 11.2
[25] | -19.4 | -9.63 | -24.4 | -13.4 | -9.52
[26] | -5.2 | -3.78 | -7.91 | -4.87 | 6.57
[27] | 0.68 | -4.54 | -4.5 | -0.44 | -4.02
[28] | -6.58 | -6.46 | -10.9 | -5.02 | 13.2

COc1cc2c(cc1-c1c(C)noc1C)ncc1[nH]c(=O)n([C@H](C)c3ccccn3)c12 [I-BET151] (max concentration tested 10000 nM)
Settings | drug sensitivity score
[1] | 11.1
[2] | 8.63
[3] | 1.57
[4] | 7.74
[5] | 8.36
[6] | 7.37
[7] | 12.4
[8] | 9.37
[9] | 6.22
[10] | 6.36
[11] | 16.1
[12] | 14.1
[13] | 17.4
[14] | 6.57

percent inhibition of viability [%]
Settings | 1 nM | 10 nM | 100 nM | 1000 nM | 10000 nM
[15] | -6.04 | 0.41 | 9.82 | 50.3 | 86
[16] | -6.96 | -4.14 | 1.63 | 30.1 | 81.5
[17] | -10.1 | -10.2 | -33.2 | -7 | 39.9
[18] | -1.82 | -7.24 | -5.5 | 36.7 | 60.8
[19] | -4.09 | -3.54 | -0.4 | 36.2 | 69.4
[20] | 11.1 | 15.2 | 12.9 | 26.3 | 69
[21] | -4.89 | -7.31 | 11.6 | 58.9 | 75
[22] | 4.94 | 14.1 | 16.8 | 34.1 | 86.3
[23] | 0.13 | -4.21 | 7.82 | 12.9 | 73.7
[24] | -10.4 | -6.13 | -13.8 | 11.4 | 80.4
[25] | -9.22 | -7.3 | 19.2 | 71.4 | 58.4
[26] | -6.56 | -3.86 | 2.8 | 72 | 98.6
[27] | -3.21 | -1.77 | 20 | 81.5 | 100
[28] | -4.2 | -5.61 | -3.72 | 17.1 | 70.7

Reference: the supplement of paper PMC5908809
